Results as given in patent US4308380A, “2-Lower alkyl-2 or 3-cephem-4-carboxylic acid derivatives” (Fujisawa Pharmaceutical Co., Ltd., priority 1973, dated 1981).
Converted amounts (≈) assume the structure as drawn. Like-named read-outs stand apart in the source and are kept apart here.

Legend:
Format in all cases: cell-based
[1] = test system: Staphylococcus aureus 213; assay: in vitro antimicrobial activity, two-fold agar plate dilution method, S. aureus 213; settings: Table 1, S. aureus 213, 37° C., 20 hours, read-out: minimum inhibitory concentration (MIC)
Method: (§1) The in vitro tests of antimicrobial activity of the compared compounds were determined by the two-fold agar plate dilution method described as follows: […]

[2] = test system: Staphylococcus aureus 226; assay: in vitro antimicrobial activity, two-fold agar plate dilution method, S. aureus 226; settings: Table 1, S. aureus 226, 37° C., 20 hours, read-out: minimum inhibitory concentration (MIC)
Method: as §1

[3] = test system: Bacillus subtilis ATCC-6633; assay: in vitro antimicrobial activity, two-fold agar-plate dilution method, B. subtilis ATCC-6633; settings: 20 hours
Method: (§2) In vitro antimicrobial activity was determined by the two-fold agar-plate dilution method as described below.
(§3) One loopful of an overnight culture of each test strain in Trypticase-soy broth (10^8 viable cells per ml) was streaked on heart infusion agar (HI-agar) containing graded concentration of antibiotics, and the minimum inhibitory concentration (MIC) was expressed in terms of meg/ml after incubation at 37° C. for 20 hours.
(§4) The data in Table 1 below present a comparison between the 2-(C1 -C6 alkyl)-cephem compounds of the present invention and known cephem compounds structurally analogous to the present compounds, differing only by alkyl substitution in the 3-position. The in vitro tests of antimicrobial activity of the compared compounds were determined by the two-fold agar plate dilution method described as follows:
as §3, with “(HI sugar)” for “(HI-agar)”, “mcg/ml” for “meg/ml”

[4] = test system: Staphylococcus aureus 206; assay: in vitro antimicrobial activity, two-fold agar plate dilution method, S. aureus 206; settings: Table 1, S. aureus 206, 37° C., 20 hours, read-out: minimum inhibitory concentration (MIC)
Method: as §1

[5] = test system: Staphylococcus aureus 209 P JC-1; assay: in vitro antimicrobial activity, two-fold agar-plate dilution method, S. aureus 209 P JC-1; settings: 20 hours
Method: as §2, §3, §4
as §3, with “(HI sugar)” for “(HI-agar)”, “mcg/ml” for “meg/ml”

[6] = test system: Staphylococcus aureus 277; assay: in vitro antimicrobial activity, two-fold agar plate dilution method, S. aureus 277; settings: Table 1, S. aureus 277, 37° C., 20 hours, read-out: minimum inhibitory concentration (MIC)
Method: as §1

[7] = test system: Staphylococcus aureus 278; assay: in vitro antimicrobial activity, two-fold agar plate dilution method, S. aureus 278; settings: Table 1, S. aureus 278, 37° C., 20 hours, read-out: minimum inhibitory concentration (MIC)
Method: as §1

[8] = ATCC6633, B. subtilis ATCC-6633, 37° C., HI-agar, read-out: MIC
[9] = ATCC6633, Table 1, B. subtilis ATCC-6633, 37° C., read-out: minimum inhibitory concentration (MIC)
[10] = 209PJC1, Table 1, S. aureus 209 P JC-1, 37° C., read-out: minimum inhibitory concentration (MIC)
[11] = S. aureus 209-P JC-1, 37° C., HI-agar, read-out: MIC

MIC [1] | MIC [2] | MIC [3, 8] | MIC [3, 9] | MIC [4] | MIC [5, 10] | MIC [5, 11] | MIC [6] | MIC [7] | Structure (SMILES)
3.13 µg/mL (≈ 6.19 µM) | 1.56 µg/mL (≈ 3.09 µM) | 3.13 µg/mL (≈ 6.19 µM) | 3.13 µg/mL (≈ 6.19 µM) | 3.13 µg/mL (≈ 6.19 µM) | 1.56 µg/mL (≈ 3.09 µM) | 1.56 µg/mL (≈ 3.09 µM) | 12.5 µg/mL (≈ 24.7 µM) | 3.13 µg/mL (≈ 6.19 µM) | CC1C=C(C(=O)O)N2C(=O)C(NC(=O)C(NC(=O)CSc3nncs3)c3ccccc3)[C@H]2S1 (stereo partly drawn) [Applicants' compound (1), 2-Methyl-7-[N-[2-(1,3,4-thiadiazol-2-ylthio)acetyl]phenylglycyl]amino-3-cephem-4-carboxylic acid]
3.13 µg/mL (≈ 8.83 µM) | 3.13 µg/mL (≈ 8.83 µM) | 0.78 µg/mL (≈ 2.2 µM) | 0.78 µg/mL (≈ 2.2 µM) | 0.78 µg/mL (≈ 2.2 µM) | 0.78 µg/mL (≈ 2.2 µM) | 0.78 µg/mL (≈ 2.2 µM) | 3.13 µg/mL (≈ 8.83 µM) | 3.13 µg/mL (≈ 8.83 µM) | CC1C=C(C(=O)O)N2C(=O)C(NC(=O)C(O)c3cccs3)[C@H]2S1 (stereo partly drawn) [Applicants' compound (2), 2-Methyl-7-[2-hydroxy-2-(2-thienyl)acetamido]-3-cephem-4-carboxylic acid]
0.39 µg/mL (≈ 0.792 µM) | 0.2 µg/mL (≈ 0.406 µM) | 6.25 µg/mL (≈ 12.7 µM) | 6.25 µg/mL (≈ 12.7 µM) | 0.39 µg/mL (≈ 0.792 µM) | 1.56 µg/mL (≈ 3.17 µM) | 1.56 µg/mL (≈ 3.17 µM) | 0.78 µg/mL (≈ 1.58 µM) | 0.39 µg/mL (≈ 0.792 µM) | CC1C=C(C(=O)O)N2C(=O)C(NC(=O)C(C(=O)Oc3ccc4c(c3)CCC4)c3ccccc3)[C@H]2S1 (stereo partly drawn) [Applicants' compound (3), 2-Methyl-7-[2-(5-indanyloxy)carbonyl-2-phenylacetamido]-3-cephem-4-carboxylic acid]
1.56 µg/mL (≈ 3.44 µM) | 0.78 µg/mL (≈ 1.72 µM) | 0.78 µg/mL (≈ 1.72 µM) | 0.78 µg/mL (≈ 1.72 µM) | 0.78 µg/mL (≈ 1.72 µM) | 0.39 µg/mL (≈ 0.86 µM) | 0.39 µg/mL (≈ 0.86 µM) | 6.25 µg/mL (≈ 13.8 µM) | 1.56 µg/mL (≈ 3.44 µM) | CC1C=C(C(=O)O)N2C(=O)C(NC(=O)C(OC(=O)c3ccncc3)c3ccccc3)[C@H]2S1 (stereo partly drawn) [Applicants' compound (4), 2-Methyl-7-(2-isonicotinoyloxy-2-phenylacetamido)-3-cephem-4-carboxylicacid]
1.56 µg/mL (≈ 4.61 µM) | 1.56 µg/mL (≈ 4.61 µM) | 0.39 µg/mL (≈ 1.15 µM) | 0.39 µg/mL (≈ 1.15 µM) | 1.56 µg/mL (≈ 4.61 µM) | 0.78 µg/mL (≈ 2.3 µM) | 0.78 µg/mL (≈ 2.3 µM) | 1.56 µg/mL (≈ 4.61 µM) | 1.56 µg/mL (≈ 4.61 µM) | CC1C=C(C(=O)O)N2C(=O)C(NC(=O)Cc3cccs3)[C@H]2S1 (stereo partly drawn) [Applicants' compound (5), 2-Methyl-7-[2-(2-thienyl)acetamido]-3-cephem-4-carboxylic acid]
0.3 µg/mL (≈ 0.818 µM) | 0.2 µg/mL (≈ 0.545 µM) | 0.2 µg/mL (≈ 0.545 µM) | 0.2 µg/mL (≈ 0.545 µM) | 0.39 µg/mL (≈ 1.06 µM) | 0.1 µg/mL (≈ 0.273 µM) | 0.1 µg/mL (≈ 0.273 µM) | 0.78 µg/mL (≈ 2.13 µM) | 0.39 µg/mL (≈ 1.06 µM) | CC1C=C(C(=O)O)N2C(=O)C(NC(=O)Cc3cccc(Cl)c3)[C@H]2S1 (stereo partly drawn) [Applicants' compound (6), 2-Methyl-7-[2-(3-chlorophenyl)acetamido]-3-cephem-4-carboxylic acid]
1.56 µg/mL (≈ 4.48 µM) | 1.56 µg/mL (≈ 4.48 µM) | 0.39 µg/mL (≈ 1.12 µM) | 0.39 µg/mL (≈ 1.12 µM) | 1.56 µg/mL (≈ 4.48 µM) | 0.78 µg/mL (≈ 2.24 µM) | 0.78 µg/mL (≈ 2.24 µM) | 6.25 µg/mL (≈ 17.9 µM) | 1.56 µg/mL (≈ 4.48 µM) | CC1C=C(C(=O)O)N2C(=O)C(NC(=O)C(O)c3ccccc3)[C@H]2S1 (stereo partly drawn) [Applicants' compound (7), 2-Methyl-7-(2-hydroxy-2-phenylacetamido)-3-cephem-4-carboxylic acid]
1.56 µg/mL (≈ 4.69 µM) | 1.56 µg/mL (≈ 4.69 µM) | 0.2 µg/mL (≈ 0.602 µM) | 0.2 µg/mL (≈ 0.602 µM) | 1.56 µg/mL (≈ 4.69 µM) | 0.78 µg/mL (≈ 2.35 µM) | 0.78 µg/mL (≈ 2.35 µM) | 3.13 µg/mL (≈ 9.42 µM) | 1.56 µg/mL (≈ 4.69 µM) | CC1C=C(C(=O)O)N2C(=O)C(NC(=O)Cc3ccccc3)[C@H]2S1 (stereo partly drawn) [Applicants' compound (8), 2-Methyl-7-(2-phenylacetamido)-3-cephem-4-carboxylic acid]
0.39 µg/mL (≈ 1.07 µM) | 0.39 µg/mL (≈ 1.07 µM) | 0.2 µg/mL (≈ 0.549 µM) | 0.2 µg/mL (≈ 0.549 µM) | 0.39 µg/mL (≈ 1.07 µM) | 0.2 µg/mL (≈ 0.549 µM) | 0.2 µg/mL (≈ 0.549 µM) | 1.56 µg/mL (≈ 4.28 µM) | 0.78 µg/mL (≈ 2.14 µM) | CC1C=C(C(=O)O)N2C(=O)C(NC(=O)CSc3ccccc3)C2S1 (stereo not drawn) [Applicants' compound (9), 2-Methyl-7-(2-phenylthioacetamido)-3-cephem-4-carboxylic acid]
1.56 µg/mL (≈ 4.18 µM) | 1.56 µg/mL (≈ 4.18 µM) | 0.39 µg/mL (≈ 1.04 µM) | 0.39 µg/mL (≈ 1.04 µM) | 1.56 µg/mL (≈ 4.18 µM) | 1.56 µg/mL (≈ 4.18 µM) | 1.56 µg/mL (≈ 4.18 µM) | 12.5 µg/mL (≈ 33.5 µM) | 1.56 µg/mL (≈ 4.18 µM) | CC1C=C(C(=O)O)N2C(=O)C(NC(=O)C(N=[N+]=[N-])c3ccccc3)[C@H]2S1 (stereo partly drawn) [Applicants' compound (10), 2-Methyl-7-(2-azido-2-phenylacetamido)-3-cephem-4-carboxylic acid]
6.25 µg/mL (≈ 16.8 µM) | 3.13 µg/mL (≈ 8.4 µM) | 0.78 µg/mL (≈ 2.09 µM) | 0.78 µg/mL (≈ 2.09 µM) | 3.13 µg/mL (≈ 8.4 µM) | 1.56 µg/mL (≈ 4.19 µM) | 1.56 µg/mL (≈ 4.19 µM) | 3.13 µg/mL (≈ 8.4 µM) | 6.25 µg/mL (≈ 16.8 µM) | CC1C=C(C(=O)O)N2C(=O)C(NC(=O)CSc3nncs3)[C@H]2S1 (stereo partly drawn) [Applicants' compound (11), 2-Methyl-7-[2-(1,3,4-thiadiazol-2-ylthio)acetamido]-3-cephem-4-carboxylic acid]
6.25 µg/mL (≈ 18.4 µM) | 3.13 µg/mL (≈ 9.2 µM) | 1.56 µg/mL (≈ 4.58 µM) | 1.56 µg/mL (≈ 4.58 µM) | 3.13 µg/mL (≈ 9.2 µM) | 3.13 µg/mL (≈ 9.2 µM) | 3.13 µg/mL (≈ 9.2 µM) | 6.25 µg/mL (≈ 18.4 µM) | 6.25 µg/mL (≈ 18.4 µM) | CC1C=C(C(=O)O)N2C(=O)C(NC(=O)Cc3cnsn3)[C@H]2S1 (stereo partly drawn) [Applicants' compound (12), 2-Methyl-7-[2-(1,2,5-thiadiazol-3-yl)acetamido]-3-cephem-4-carboxylic acid]
12.5 µg/mL (≈ 44.4 µM) | 6.25 µg/mL (≈ 22.2 µM) | 3.13 µg/mL (≈ 11.1 µM) | 3.13 µg/mL (≈ 11.1 µM) | 6.25 µg/mL (≈ 22.2 µM) | 3.13 µg/mL (≈ 11.1 µM) | 3.13 µg/mL (≈ 11.1 µM) | 3.13 µg/mL (≈ 11.1 µM) | 6.25 µg/mL (≈ 22.2 µM) | CC1C=C(C(=O)O)N2C(=O)C(NC(=O)CC#N)[C@H]2S1 (stereo partly drawn) [Applicants' compound (13), 2-Methyl-7-(2-cyanoacetamido)-3-cephem-4-carboxylic acid]
6.25 µg/mL (≈ 19 µM) | 3.13 µg/mL (≈ 9.53 µM) | 1.56 µg/mL (≈ 4.75 µM) | 1.56 µg/mL (≈ 4.75 µM) | 3.13 µg/mL (≈ 9.53 µM) | 1.56 µg/mL (≈ 4.75 µM) | 1.56 µg/mL (≈ 4.75 µM) | 1.56 µg/mL (≈ 4.75 µM) | 3.13 µg/mL (≈ 9.53 µM) | C=CCSCC(=O)NC1C(=O)N2C(C(=O)O)=CC(C)S[C@H]12 (stereo partly drawn) [Applicants' compound (14), 2-Methyl-7-[2-(allylthio)acetamido]-3-cephem-4-carboxylic acid]
6.25 µg/mL (≈ 18.7 µM) | 6.25 µg/mL (≈ 18.7 µM) | 0.78 µg/mL (≈ 2.34 µM) | 0.78 µg/mL (≈ 2.34 µM) | 6.25 µg/mL (≈ 18.7 µM) | 3.13 µg/mL (≈ 9.39 µM) | 3.13 µg/mL (≈ 9.39 µM) | 25 µg/mL (≈ 75 µM) | 6.25 µg/mL (≈ 18.7 µM) | CC1C=C(C(=O)O)N2C(=O)C(NC(=O)Cc3cccnc3)[C@H]2S1 (stereo partly drawn) [Applicants' compound (15), 2-Methyl-7-[2-(3-pyridyl)acetamido]-3-cephem-4-carboxylic acid]
25 µg/mL (≈ 63.5 µM) | 6.25 µg/mL (≈ 15.9 µM) | 6.25 µg/mL (≈ 15.9 µM) | 6.25 µg/mL (≈ 15.9 µM) | 6.25 µg/mL (≈ 15.9 µM) | 3.13 µg/mL (≈ 7.95 µM) | 3.13 µg/mL (≈ 7.95 µM) | 25 µg/mL (≈ 63.5 µM) | 12.5 µg/mL (≈ 31.8 µM) | CSc1ccc(C(N)C(=O)NC2C(=O)N3C(C(=O)O)=CC(C)S[C@H]23)cc1 (stereo partly drawn) [Applicants' compound (16), 2-Methyl-7-[2-amino-2-(4-methylthiophenyl)acetamido]-3-cephem-4-carboxylicacid]
